# US11304970B2, “EGFR gene expression-suppressing siRNA, precursor of same, and applications thereof” (JIANGSU MICROMEDMARK BIOTECH CO., LTD., priority 2016, dated 2022)
# System: mouse Lewis lung cancer
# Assay: Survival (Kaplan-Meier) and micro-CT tumour examination in Lewis lung cancer mice (Example 3)
# Conditions: 5 mg/kg, once every 3 days, 7 times, plasmid intravenous, Gefitinib oral
# Experimental: To further study the therapeutic effect of the EGFR siRNA plasmid on mouse Lewis lung cancer, after successful model construction of Lewis lung cancer mice, we performed treatment in the following three groups: the EGFR-si plasmid group, Gefitinib group and control plasmid group, respectively. […] The EGFR-si plasmid and control plasmid were administered by intravenous injection, and Gefitinib was administered orally. The dosage in each treatment group was 5 mg/kg, and the administration interval was once every 3 days, for a total of 7 times. After the treatment, we recorded the survival situation of the mice and plotted the Kaplan-Meier survival curve using the Graphpad Prism statistical software.
structure (smiles),measurement,value
COc1cc2ncnc(Nc3ccc(F)c(Cl)c3)c2cc1OCCCN1CCOCC1 [Gefitinib],change of lung tumours after the treatment (micro-CT),the tumours generally grew
